Data from patent US20260285850A1, “SUBSTITUTED OXAZOLIDINONES AND IMIDAZOLINONES AS HERBICIDES” (FMC CORPORATION, priority 2023, published 2026).

Assays:
Type in all cases: in vivo
soybean (Glycine max) [1] = assay: Test A postemergence application, visual injury rating 0-100; settings: for Soybean plant response rating (0 to 100 scale): Postemergence
Excerpt: (§1) Seeds of plant species selected from barnyardgrass (Echinochloa crus-galli), blackgrass (Alopecurus myosuroides), corn (Zea mays), foxtail, giant (giant foxtail, Setaria faberi), green foxtail (Setaria viridis), goosegrass (Eleusine indica), kochia (Bassia scoparia), oat, wild (wild oat, Avena fatua), palmer (palmer amaranth, palmer pigweed, Amaranthus palmeri), ragweed (common ragweed, Ambrosia artemisiifolia), ryegrass, Italian (italian ryegrass, Lolium multiflorum), soybean (Glycine max) and wheat (Triticum aestivum) were planted into a blend of loam soil and sand and treated preemergence with a directed soil spray using test chemicals formulated in a non-phytotoxic solvent mixture which included a surfactant.
(§2) At the same time, plants selected from these crops and weed species and also galium (catchweed bedstraw, Galium aparine) and horseweed (Erigeron canadensis) were planted in pots containing the same blend of loam soil and sand and treated with postemergence applications of test chemicals formulated in the same manner. Plants ranged in height from 2 to 10 cm and were in the one- to two-leaf stage for the postemergence treatment. Treated plants and untreated controls were maintained in a greenhouse for 10 days, after which time all treated plants were compared to untreated controls and visually evaluated for injury. Plant response ratings, summarized in Table A, are based on a 0 to 100 scale where 0 is no effect and 100 is complete control. A dash (-) response means no test result.

corn (Zea mays) [2] = assay: as above; settings: for Corn plant response rating (0 to 100 scale): Postemergence
Excerpt: as §1, §2

kochia (Bassia scoparia) [3] = assay: as above; settings: for Kochia plant response rating (0 to 100 scale): Postemergence
Excerpt: as §1, §2

[4] = system: ragweed (common ragweed, Ambrosia artemisiifolia); assay: as above; settings: for Ragweed plant response rating (0 to 100 scale): Postemergence
Excerpt: as §1, §2

[5] = system: blackgrass (Alopecurus myosuroides); assay: as above; settings: for Blackgrass plant response rating (0 to 100 scale): Postemergence
Excerpt: as §1, §2

[6] = system: horseweed (Erigeron canadensis); assay: as above; settings: for Horseweed plant response rating (0 to 100 scale): Postemergence
Excerpt: as §1, §2

[7] = system: ryegrass, Italian (italian ryegrass, Lolium multiflorum); assay: as above; settings: for Ryegrass, Italian plant response rating (0 to 100 scale): Postemergence
Excerpt: as §1, §2

[8] = system: palmer (palmer amaranth, palmer pigweed, Amaranthus palmeri); assay: as above; settings: for Amaranth, Palmer / Pigweed, Palmer plant response rating (0 to 100 scale): Postemergence
Excerpt: as §1, §2

[9] = system: galium (catchweed bedstraw, Galium aparine); assay: as above; settings: Postemergence
Excerpt: as §1, §2

[10] = system: barnyardgrass (Echinochloa crus-galli); assay: as above; settings: for Barnyardgrass plant response rating (0 to 100 scale): Postemergence
Excerpt: as §1, §2

[11] = system: oat, wild (wild oat, Avena fatua); assay: as above; settings: for Oat, Wild plant response rating (0 to 100 scale): Postemergence
Excerpt: as §1, §2

[12] = system: wheat (Triticum aestivum); assay: as above; settings: for Wheat plant response rating (0 to 100 scale): Postemergence
Excerpt: as §1, §2

soybean (Glycine max) [13] = assay: Test A preemergence soil spray, visual injury rating 0-100; settings: 10 days; for Soybean plant response rating (0 to 100 scale): 125 g ai/ha
Excerpt: as §1, §2

corn (Zea mays) [14] = assay: as above; settings: 10 days; for Corn plant response rating (0 to 100 scale): 125 g ai/ha
Excerpt: as §1, §2

kochia (Bassia scoparia) [15] = assay: as above; settings: 10 days; for Kochia plant response rating (0 to 100 scale): 125 g ai/ha
Excerpt: as §1, §2

[16] = system: ragweed (common ragweed, Ambrosia artemisiifolia); assay: as above; settings: 10 days; for Ragweed plant response rating (0 to 100 scale): 125 g ai/ha
Excerpt: as §1, §2

[17] = system: blackgrass (Alopecurus myosuroides); assay: as above; settings: 10 days; for Blackgrass plant response rating (0 to 100 scale): 125 g ai/ha
Excerpt: as §1, §2

[18] = system: ryegrass, Italian (italian ryegrass, Lolium multiflorum); assay: as above; settings: 10 days; for Ryegrass, Italian plant response rating (0 to 100 scale): 125 g ai/ha
Excerpt: as §1, §2

[19] = system: palmer (palmer amaranth, palmer pigweed, Amaranthus palmeri); assay: as above; settings: 10 days; for Amaranth, Palmer plant response rating (0 to 100 scale): 125 g ai/ha
Excerpt: as §1, §2

[20] = system: barnyardgrass (Echinochloa crus-galli); assay: as above; settings: 10 days; for Barnyardgrass plant response rating (0 to 100 scale): 125 g ai/ha
Excerpt: as §1, §2

[21] = system: oat, wild (wild oat, Avena fatua); assay: as above; settings: 10 days; for Oat, Wild plant response rating (0 to 100 scale): 125 g ai/ha
Excerpt: as §1, §2

[22] = system: wheat (Triticum aestivum); assay: as above; settings: 10 days; for Wheat plant response rating (0 to 100 scale): 125 g ai/ha
Excerpt: as §1, §2

[23] = system: green foxtail (Setaria viridis); assay: Test A postemergence application, visual injury rating 0-100; settings: 10 days
Excerpt: as §1, §2

[24] = system: green foxtail (Setaria viridis); assay: Test A preemergence soil spray, visual injury rating 0-100; settings: 10 days, 0 = no effect, 100 = complete control
Excerpt: as §1, §2

[25] = 31 g ai/ha, greenhouse 10 days, 0 no effect, 100 complete control
[26] = 125 g ai/ha, 10 days, 0 is no effect, 100 is complete control
[27] = 0 = no effect, 100 = complete control
[28] = 31 g ai/ha, postemergence, 10 days, 0 = no effect, 100 = complete control
[29] = 31 g ai/ha, 0 = no effect, 100 = complete control

CCS(=O)(=O)NC(=O)C1C=CC(NC(=O)C2(C)CN(c3cc(Cl)cc(Cl)c3)C(=O)O2)C1 (stereo not drawn) [Compound 83]
10: Soybean plant response rating (0 to 100 scale) (soybean (Glycine max) [13]; [27])
60: Soybean plant response rating (0 to 100 scale) (soybean (Glycine max) [1]; [26]) | Ragweed plant response rating (0 to 100 scale) [4, 25] | Blackgrass plant response rating (0 to 100 scale) [5, 25] | Ryegrass, Italian plant response rating (0 to 100 scale) [7, 25] | Corn plant response rating (0 to 100 scale) (corn (Zea mays) [14]; [27]) | Ryegrass, Italian plant response rating ([18]; 31 g ai/ha, 0 to 100 scale) | Oat, Wild plant response rating (0 to 100 scale) [21, 27] | Wheat plant response rating (0 to 100 scale) [22, 27]
80: Ragweed plant response rating (0 to 100 scale) [4, 26] | Amaranth, Palmer / Pigweed, Palmer plant response rating (0 to 100 scale) [8, 25] | Galium plant response rating (0 to 100 scale) [9, 25] | Galium plant response rating (0 to 100 scale) [9, 26] | Oat, Wild plant response rating (0 to 100 scale) [11, 25] | Ryegrass, Italian plant response rating (0 to 100 scale) [18, 27]
40: Soybean plant response rating (soybean (Glycine max) [13]; 31 g ai/ha, 0 to 100 scale) | Blackgrass plant response rating (0 to 100 scale) [17, 27]
0: Corn plant response rating (corn (Zea mays) [14]; 31 g ai/ha, 0 to 100 scale) | Kochia plant response rating (kochia (Bassia scoparia) [15]; 31 g ai/ha, 0 to 100 scale) | Ragweed plant response rating ([16]; 31 g ai/ha, 0 to 100 scale) | Blackgrass plant response rating ([17]; 31 g ai/ha, 0 to 100 scale) | Oat, Wild plant response rating ([21]; 31 g ai/ha, 0 to 100 scale) | Wheat plant response rating ([22]; 31 g ai/ha, 0 to 100 scale)
100: Amaranth, Palmer plant response rating (0 to 100 scale) [19, 27]
90: Corn plant response rating (0 to 100 scale) (corn (Zea mays) [2]; [26]) | Blackgrass plant response rating (0 to 100 scale) [5, 26] | Amaranth, Palmer / Pigweed, Palmer plant response rating (0 to 100 scale) [8, 26] | Barnyardgrass plant response rating (0 to 100 scale) [10, 25] | Barnyardgrass plant response rating (0 to 100 scale) [10, 26] | Oat, Wild plant response rating (0 to 100 scale) [11, 26] | Wheat plant response rating (0 to 100 scale) [12, 25] | Wheat plant response rating (0 to 100 scale) [12, 26] | Kochia plant response rating (0 to 100 scale) (kochia (Bassia scoparia) [15]; [27])
30: Barnyardgrass plant response rating ([20]; 31 g ai/ha, 0 to 100 scale)
20: Soybean plant response rating (0 to 100 scale) (soybean (Glycine max) [1]; [25]) | Corn plant response rating (0 to 100 scale) (corn (Zea mays) [2]; [25]) | Horseweed plant response rating (0 to 100 scale) [6, 25] | Ragweed plant response rating (0 to 100 scale) [16, 27]
70: Kochia plant response rating (0 to 100 scale) (kochia (Bassia scoparia) [3]; [25]) | Kochia plant response rating (0 to 100 scale) (kochia (Bassia scoparia) [3]; [26]) | Horseweed plant response rating (0 to 100 scale) [6, 26] | Ryegrass, Italian plant response rating (0 to 100 scale) [7, 26] | Amaranth, Palmer (Pigweed, Palmer) plant response rating ([19]; 31 g ai/ha, 0 to 100 scale) | Barnyardgrass plant response rating (0 to 100 scale) [20, 27]

CONC(=O)C1CC(NC(=O)C2(C)CN(c3cc(F)cc(F)c3)C(=O)O2)CO1 (stereo not drawn) [Compound 40]
20: Corn plant response rating (0-100) (corn (Zea mays) [2]; [28]) | Ragweed plant response rating (0 to 100 scale) [4, 26] | Ryegrass, Italian plant response rating (0-100) [7, 28] | Foxtail, Green plant response rating (0 to 100 scale) ([24]; 125 g ai/ha) | Ryegrass, Italian plant response rating (0-100) [18, 29]
30: Horseweed plant response rating (0-100) [6, 28] | Amaranth, Palmer / Pigweed, Palmer plant response rating (0 to 100 scale) [8, 26] | Barnyardgrass plant response rating (0 to 100 scale) [20, 27]
60: Soybean plant response rating (0 to 100 scale) (soybean (Glycine max) [1]; [26]) | Ryegrass, Italian plant response rating (0 to 100 scale) [7, 26]
10: Barnyardgrass plant response rating (0-100) [10, 28] | Soybean plant response rating (0 to 100 scale) (soybean (Glycine max) [13]; [27])
0: Soybean plant response rating (0-100) (soybean (Glycine max) [1]; [28]) | Foxtail, Green plant response rating (0-100) ([23]; 31 g ai/ha, postemergence, 0 = no effect, 100 = complete control) | Kochia plant response rating (0-100) (kochia (Bassia scoparia) [3]; [28]) | Ragweed plant response rating (0-100) [4, 28] | Horseweed plant response rating (0 to 100 scale) [6, 26] | Amaranth, Palmer plant response rating (0-100) [8, 28] | Soybean plant response rating (0-100) (soybean (Glycine max) [13]; [29]) | Corn plant response rating (0-100) (corn (Zea mays) [14]; [29]) | Corn plant response rating (0 to 100 scale) (corn (Zea mays) [14]; [27]) | Foxtail, Green plant response rating (0-100) ([24]; 31 g ai/ha) | Kochia plant response rating (0-100) (kochia (Bassia scoparia) [15]; [29]) | Kochia plant response rating (0 to 100 scale) (kochia (Bassia scoparia) [15]; [27]) | Ragweed plant response rating (0-100) [16, 29] | Ragweed plant response rating (0 to 100 scale) [16, 27] | Amaranth, Palmer plant response rating (0-100) [19, 29] | Amaranth, Palmer plant response rating (0 to 100 scale) [19, 27] | Barnyardgrass plant response rating (0-100) [20, 29]
80: Wheat plant response rating (0 to 100 scale) [12, 26] | Blackgrass plant response rating (0 to 100 scale) [17, 27]
100: Corn plant response rating (0 to 100 scale) (corn (Zea mays) [2]; [26]) | Blackgrass plant response rating (0-100) [5, 28] | Blackgrass plant response rating (0 to 100 scale) [5, 26] | Barnyardgrass plant response rating (0 to 100 scale) [10, 26]
50: Blackgrass plant response rating (0-100) [17, 29] | Oat, Wild plant response rating (0-100) [21, 29] | Wheat plant response rating (0-100) [22, 29]
70: Kochia plant response rating (0 to 100 scale) (kochia (Bassia scoparia) [3]; [26]) | Wheat plant response rating (0-100) [12, 28]
90: Foxtail, Green plant response rating (0 to 100 scale) ([23]; Postemergence, 125 g ai/ha, 0 is no effect, 100 is complete control) | Oat, Wild plant response rating (0-100) [11, 28] | Oat, Wild plant response rating (0 to 100 scale) [11, 26] | Ryegrass, Italian plant response rating (0 to 100 scale) [18, 27] | Oat, Wild plant response rating (0 to 100 scale) [21, 27] | Wheat plant response rating (0 to 100 scale) [22, 27]
